According to ChEMBL document CHEMBL3525911, “The development, characterization, and application of an OATP1B1 inhibition assay in drug discovery” (Drug Metab Dispos, 2012):

How the values were obtained:
[1] = target: T1, Solute carrier organic anion transporter family member 1B1 (Homo sapiens, UniProt Q9Y6L6); experiment: Inhibition of OATP1B1 (unknown origin) expressed in HEK293 cells using estrone-3-sulfate substrate; assay type: ADME, cell-based
T1 sequence (Q9Y6L6 whole entry): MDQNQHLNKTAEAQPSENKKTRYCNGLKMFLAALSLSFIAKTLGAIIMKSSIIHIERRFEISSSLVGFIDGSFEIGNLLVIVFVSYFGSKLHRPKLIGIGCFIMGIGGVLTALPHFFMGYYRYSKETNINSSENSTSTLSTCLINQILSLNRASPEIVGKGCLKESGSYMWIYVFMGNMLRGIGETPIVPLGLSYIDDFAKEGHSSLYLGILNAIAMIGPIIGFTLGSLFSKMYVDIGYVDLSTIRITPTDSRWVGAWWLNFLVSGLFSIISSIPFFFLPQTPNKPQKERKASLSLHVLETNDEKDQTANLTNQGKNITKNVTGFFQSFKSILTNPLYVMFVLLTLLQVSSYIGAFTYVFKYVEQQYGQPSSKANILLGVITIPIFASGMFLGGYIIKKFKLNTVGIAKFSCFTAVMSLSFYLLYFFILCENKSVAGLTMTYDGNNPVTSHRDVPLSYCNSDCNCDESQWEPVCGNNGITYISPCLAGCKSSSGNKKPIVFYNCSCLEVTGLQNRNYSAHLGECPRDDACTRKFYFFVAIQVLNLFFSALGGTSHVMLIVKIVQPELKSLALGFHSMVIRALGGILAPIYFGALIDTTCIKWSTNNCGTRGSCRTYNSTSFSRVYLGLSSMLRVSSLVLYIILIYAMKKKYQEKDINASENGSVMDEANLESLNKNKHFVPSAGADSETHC

[2] = target: T1, Solute carrier organic anion transporter family member 1B1; experiment: Inhibition of OATP1B1 (unknown origin) expressed in HEK293 cells using pitavastatin substrate; assay type: ADME, cell-based
[3] = target: T1, Solute carrier organic anion transporter family member 1B1; experiment: Inhibition of OATP1B1 (unknown origin) expressed in HEK293 cells using estradiol-17beta-glucuronide substrate; assay type: ADME, cell-based
[4] = substrate: O=C(O)C[C@H](O)C[C@H](O)/C=C/c1c(C2CC2)nc2ccccc2c1-c1ccc(F)cc1; experiment: (§1) Drug uptake in HEK293 cells expressing OATP1B1 (unknown origin) assessed as OATP1B1-mediated drug transport; assay type: ADME, cell-based, Homo sapiens
[5] = substrate: C[C@]12CC[C@@H]3c4ccc(O)cc4CC[C@H]3[C@@H]1CC[C@@H]2O[C@@H]1O[C@H](C(=O)O)[C@@H](O)[C@H](O)[C@H]1O; experiment: as §1; assay type: ADME, cell-based, Homo sapiens

## Cc1ccc(C)c(OCCCC(C)(C)C(=O)O)c1 [GEMFIBROZIL]
[1]
  IC50: 130 µM
[2]
  IC50: 38 µM
[3]
  IC50: 11 µM

## CO[C@H]1/C=C/O[C@@]2(C)Oc3c(C)c(O)c4c(O)c(c(/C=N/N5CCN(C)CC5)c(O)c4c3C2=O)NC(=O)/C(C)=C\C=C\[C@H](C)[C@H](O)[C@@H](C)[C@@H](O)[C@@H](C)[C@H](OC(C)=O)[C@@H]1C [RIFAMPIN]
[1]
  IC50: 2.3 µM
[3]
  IC50: 0.3 µM

B1: Solute carrier organic anion transporter family member 1B1 (Homo sapiens) (protein)
chain: T1 sequence (Q9Y6L6 whole entry)
[4]
  Km: 4.8 µM
  Vmax: 0.00045 µmol/min
[5]
  Km: 3.6 µM
  Vmax: 0.0002 µmol/min
